Results: patent publication US8026221B2, “Method, composition and kit for antigenic binding of norwalk-like viruses” (Children's Hospital Medical Center, priority 2002, dated 2011)

Tested on: NV
Assay: Binding of synthetic histo-blood antigen with NLV after glycosidase digestion
Set-up: species or system Norwalk Virus
Details: after digestion with α-N-acetylgalactosaminidase
From the text: Thus, the corresponding NLV could not be bound.

“GalNAc-α1→3 (Fuc-α1→2) Gal β-O-space) nBSA [A trisaccharide-BSA]” was tested, and the “Binding with NLV after removal of the antigenic determinant sugar epitope” value was “losses binding”.
